Assay results published in patent publication US20050004177A1, “Combination of an allosteric inhibitor of matrix metalloproteinase-13 and a ligand to an alpha-2-delta receptor” (WARNER-LAMBERT COMPANY LLC, priority 2003, published 2005).

O=C(O)c1ccc(Cn2nnc(-c3cccc(C#CCc4ccccc4)c3)n2)cc1 [Preparation 2, 4-{5-[3-(3-Phenyl-prop-1-ynyl)-phenyl]-tetrazol-2-ylmethyl}-benzoic acid]
melting point: 195 to 198 °C
